Read-outs that look alike come from different tables or passages of the source.
Legend:
hS1P1 = molecular target: T1, hS1P1 (Homo sapiens, UniProt P21453); test: Tango β-arrestin recruitment luciferase assay, Tango-hS1P1-CHO; assay type: cell-based; details: S1PR1; Tango-S1PR1-CHO-K1 cells; mean ± SD; read-out: EC50
T1 construct: expressed in transfected cells; host or cells: CHO
In short: (§1)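 CHO Tango cells (receptor–V2 tail–TEV/tTA fusion, β-arrestin 2–TEV, UAS-luciferase reporter) plated overnight (20 h) at 37°C, then treated 20 h with compounds, top final 45 µM, 9 five-fold dilutions, triplicates. Luciferase luminescence read; BAF-312 positive control at 1 µM (S1PR1) or 25 µM (S1PR4).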

hS1P4 [1] = molecular target: T2, hS1P4 (Homo sapiens, UniProt O95977); test: Tango β-arrestin recruitment luciferase assay, Tango-hS1P4-CHO; assay type: cell-based
T2 construct: expressed in transfected cells; host or cells: CHO
T2 sequence (O95977 1-384): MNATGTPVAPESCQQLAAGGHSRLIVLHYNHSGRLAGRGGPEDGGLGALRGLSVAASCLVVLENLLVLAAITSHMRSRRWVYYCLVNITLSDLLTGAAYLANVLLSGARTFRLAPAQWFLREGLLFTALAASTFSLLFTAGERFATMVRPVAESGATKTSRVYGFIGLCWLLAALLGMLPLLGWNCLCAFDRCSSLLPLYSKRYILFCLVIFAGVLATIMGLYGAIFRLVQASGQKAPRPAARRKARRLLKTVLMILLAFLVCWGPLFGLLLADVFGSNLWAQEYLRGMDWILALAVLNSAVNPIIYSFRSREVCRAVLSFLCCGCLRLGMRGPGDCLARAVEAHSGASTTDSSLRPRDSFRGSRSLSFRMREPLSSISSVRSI
In short: as §1

hS1P4 [2] = test: as above; assay type: cell-based, human; details: S1PR4 versus S1PR1, β-arrestin recruitment EC50
In short: as §1

S1PR2 = molecular target: T3, S1PR2 (Homo sapiens, UniProt O95136); test: FLIPR assay, S1PR2-CHO cell line; assay type: cell-based; details: mean ± SD
T3 construct: expressed in transfected cells
T3 sequence (O95136 whole entry, species assumed): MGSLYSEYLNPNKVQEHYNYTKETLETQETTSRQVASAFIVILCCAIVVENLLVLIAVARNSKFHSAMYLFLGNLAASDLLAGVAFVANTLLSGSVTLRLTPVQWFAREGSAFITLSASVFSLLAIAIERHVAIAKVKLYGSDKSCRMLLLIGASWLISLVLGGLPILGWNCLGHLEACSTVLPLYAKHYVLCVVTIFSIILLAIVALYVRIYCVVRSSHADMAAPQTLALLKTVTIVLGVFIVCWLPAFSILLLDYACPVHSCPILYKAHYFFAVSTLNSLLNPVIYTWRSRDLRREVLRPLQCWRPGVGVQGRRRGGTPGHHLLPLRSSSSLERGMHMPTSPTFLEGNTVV

S1PR3 = molecular target: T4, S1PR3 (Homo sapiens, UniProt Q99500); test: β-arrestin recruitment, PathHunter CHO-K1-S1PR3 cells; assay type: cell-based; details: mean ± SD
T4 construct: expressed in transfected cells
T4 sequence (Q99500 whole entry, species assumed): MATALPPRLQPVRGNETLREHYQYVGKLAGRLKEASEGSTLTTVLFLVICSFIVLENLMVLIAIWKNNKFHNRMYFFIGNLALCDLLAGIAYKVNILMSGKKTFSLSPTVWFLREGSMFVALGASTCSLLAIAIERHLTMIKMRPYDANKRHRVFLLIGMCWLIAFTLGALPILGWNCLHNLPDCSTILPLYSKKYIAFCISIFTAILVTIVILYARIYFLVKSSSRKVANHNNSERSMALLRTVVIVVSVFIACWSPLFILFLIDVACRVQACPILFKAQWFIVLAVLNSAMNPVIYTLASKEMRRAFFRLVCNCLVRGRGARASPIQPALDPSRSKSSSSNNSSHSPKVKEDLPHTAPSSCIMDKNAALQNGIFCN

S1PR5 = molecular target: T5, S1PR5 (Homo sapiens, UniProt Q9H228); test: FLIPR assay, S1PR5-CHO cell line; assay type: cell-based; details: mean ± SD
T5 construct: expressed in transfected cells
T5 sequence (Q9H228 whole entry, species assumed): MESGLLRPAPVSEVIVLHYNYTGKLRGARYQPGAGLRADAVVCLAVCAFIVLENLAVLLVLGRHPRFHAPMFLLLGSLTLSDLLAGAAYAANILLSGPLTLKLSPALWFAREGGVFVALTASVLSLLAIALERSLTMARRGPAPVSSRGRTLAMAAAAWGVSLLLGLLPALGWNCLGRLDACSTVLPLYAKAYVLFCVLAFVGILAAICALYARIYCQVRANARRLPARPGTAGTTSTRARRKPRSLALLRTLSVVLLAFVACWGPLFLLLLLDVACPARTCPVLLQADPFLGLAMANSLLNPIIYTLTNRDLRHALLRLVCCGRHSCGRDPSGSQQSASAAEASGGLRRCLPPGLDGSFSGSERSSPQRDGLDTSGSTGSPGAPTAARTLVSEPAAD

[3] = Pharmacokinetic property testing in rats; assay type: in vivo, SD rats; details: for CL_obs / Vss_obs / AUC(0-t) / Cmax / half-life / Tmax / F (%): male SD rats; for AUC(0-t) / Cmax / half-life / Tmax / bioavailability: Sprague-Dawley, rat, in vivo; for Tmax: 3 per group; for bioavailability: male, oral, 10 mg/kg; for F (%): oral bioavailability, PO 10 mg/kg vs IV 1 mg/kg
Text: In the structure-activity relationship discussion, the inventors obtained key compound 22. Based on compound 22, the polar head of the compound was modified as chiral pyrrolidine carboxylic acid, yielding selective S1PR4 agonists 30 and 67. We conducted pharmacokinetic property analyses on compounds 22, 30, and 67, respectively.

mouse = test: DSS mouse acute UC model, dosing concurrent with modeling (Example 7); assay type: in vivo; details: intragastric, Compound 30 0.3, 1, 3 mg/kg, Compound 67 1 mg/kg; for colon length: positive control RPC1063 1 mg/kg
Method: Mouse models were established using DSS, with the protocol being 2.5% DSS in drinking water for 5 days followed by ad libitum normal drinking water for 2 days. Intragastric administration was performed concurrently with modeling, and RPC1063 was used as the positive control drug. The specific groupings were as follows: RPC1063 was administered intragastrically at 1 mg/kg. Compound 30 was tested at three doses: 0.3 mg/kg, 1 mg/kg, and 3 mg/kg. Compound 38 was administered at 5 mg/kg, while Compounds 53, 67, 77, and 80 were each administered at 1 mg/kg.

BALB/c mice = test: Imiquimod-induced mouse psoriasis model; assay type: in vivo
Text: The imiquimod-induced mouse psoriasis model is a commonly used model for psoriasis research. This model uses the topical immune modulator imiquimod (IMQ) to induce lesions similar to human psoriasis on the skin of mice.
• Mice: Female BALB/c mice, aged 6-8 weeks. • Imiquimod cream: 5% IMQ cream. • Experimental Procedures • Animal preparation: Mice were acclimated to the laboratory environment for at least one week.
Random grouping: Generally, 5 mice were included in each group. Specifically, the groups were as follows: adalimumab injection group for positive control; compounds 30 and 67 administered by gavage, divided into 3 dosage groups: 0.3, 1, and 3 mg/kg.
The hair on the backs of the mice in each group was shaved with a razor, covering an area of approximately 2 × 3 cm^2.
5% IMQ cream was applied daily to the shaved area on the mouse backs at a dose of 62.5 mg of IMQ cream for 6-7 consecutive days. Skin reactions of the mice were observed after 7 days, including erythema, scaling, and skin thickening.

[4] = S1PR4, Tango-S1PR4-CHO-K1 cells, mean ± SD, read-out: EC50
[5] = β-arrestin recruitment, 20 h drug treatment, top 45 µM, 9 serial 5-fold dilutions, positive control 25 µM BAF-312, read-out: Tango-hS1P4-CHO EC50
[6] = gavage 0.3, 1 and 3 mg/kg, after 7 days of IMQ
[7] = high dose of 3 mg/kg, compared with adalimumab

T1 sequence (P21453 whole entry): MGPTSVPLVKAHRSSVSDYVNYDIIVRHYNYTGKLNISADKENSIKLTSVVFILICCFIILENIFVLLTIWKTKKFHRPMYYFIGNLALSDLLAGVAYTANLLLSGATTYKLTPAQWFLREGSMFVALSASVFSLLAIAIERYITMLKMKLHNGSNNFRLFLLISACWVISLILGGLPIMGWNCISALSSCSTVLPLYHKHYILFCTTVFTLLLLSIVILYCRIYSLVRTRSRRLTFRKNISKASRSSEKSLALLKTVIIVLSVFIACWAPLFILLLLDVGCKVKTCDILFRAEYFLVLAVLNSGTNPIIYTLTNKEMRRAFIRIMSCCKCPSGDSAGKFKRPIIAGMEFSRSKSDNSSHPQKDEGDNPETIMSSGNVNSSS

Row | SMILES | EC50 (hS1P1) [nM] | EC50 (hS1P4 [1]; [4]) [nM] | EC50 (hS1P4 [1]; [5]) [nM] | selectivity over S1PR1 (hS1P4 [2]) | EC50 (S1PR2; read-out: EC50) [nM] | EC50 (S1PR3; read-out: EC50) [nM] | EC50 (S1PR5; read-out: EC50) [nM] | CL_obs ([3]; IV (1 mg/kg)) [mL/min/kg] | Vss_obs ([3]; IV (1 mg/kg)) [L/kg] | CL_obs ([3]; PO (10 mg/kg)) [mL/min/kg] | Vss_obs ([3]; PO (10 mg/kg)) [L/kg] | AUC(0-t) ([3]; IV (1 mg/kg)) [ng·h/mL] | Cmax ([3]; IV (1 mg/kg)) [ng/mL] | half-life ([3]; IV (1 mg/kg)) [h] | Tmax ([3]; IV (1 mg/kg)) [h] | AUC(0-t) ([3]; PO (10 mg/kg)) [ng·h/mL] | Cmax ([3]; PO (10 mg/kg)) [ng/mL] | half-life ([3]; PO (10 mg/kg)) [h] | Tmax ([3]; PO (10 mg/kg)) [h] | bioavailability [3] [%] | also measured
1 | CCc1cc(/C(C)=N/OCc2ccc(-c3ccccc3)c(C)c2)ccc1CN1CC[C@H](C(=O)O)C1 [Compound 30] | 87.6 ± 3.35 | 9.09 ± 0.67 | 9.09 | approximately 10 fold | > 10000 | > 10000 | > 10000 | 20.2 ± 7.33 | 3.59 ± 1.16 | 17 ± 1.3 | 4.08 ± 0.32 | 824 ± 284 | 438 ± 82.6 | 2.15 ± 0.06 | 0.08 | 9860 ± 794 | 1030 ± 91.9 | 2.78 ± 0.12 | 2 | 120 | EC50 (S1PR2): no agonist activity; EC50 (S1PR3): no agonist activity; EC50 (S1PR5): no agonist activity; F (%) [3]: 119.7%; DAI scores (mouse): favorable effects; body weight (mouse): concentration-dependent recovery; colon length (mouse): significant efficacy; skin reactions (erythema, scaling, skin thickening) (BALB/c mice; [6]): significant alleviating effects at all concentrations in a dose-dependent manner; skin reactions (erythema, scaling, skin thickening) (BALB/c mice; [7]): therapeutic effects similar to those of adalimumab
2 | CCc1cc(/C(C)=N/OCc2ccc(-c3cnc(F)cn3)c(C)c2)ccc1CN1CC[C@H](C(=O)O)C1 [Compound 67, (S, E)-1-(2-ethyl-4-(1-(((4-(5-fluoropyrazin-2-yl)-3-methylbenzyl)oxy)imino)ethyl)benzyl)pyrrolidine-3-carboxylic acid] | 195 ± 16 | 1.8 ± 0.43 | 1.8 | more than 100 fold | > 10000 | > 10000 | 3740 ± 221 | 19.8 ± 0.67 | 1.52 ± 0.02 | 25.8 ± 4.5 | 4.88 ± 1.17 | 836 ± 27 | 958 ± 45.9 | 1.18 ± 0.01 | 0.08 | 6370 ± 1510 | 986 ± 277 | 2.17 ± 0.11 | 1.83 ± 1.89 | 76.2 | F (%) [3]: 76.21%; DAI scores (mouse): favorable effects; body weight (mouse): less body weight loss; colon length (mouse): significant efficacy; skin reactions (erythema, scaling, skin thickening) (BALB/c mice; [6]): significant alleviating effects at all concentrations in a dose-dependent manner; skin reactions (erythema, scaling, skin thickening) (BALB/c mice; [7]): therapeutic effects similar to those of adalimumab

Source: patent EP4790048A1, “S1PR4 REGULATOR COMPOUND FOR AUTOIMMUNE DISEASE TREATMENT AND APPLICATION THEREOF” (Shengyuan Zetong (Shanghai) Pharmaceutical Co., Ltd, priority 2023, dated 2025)
